Columns and labels:
[1] = Octanol-buffer partition coefficient, log D of the compound at pH 7.4; assay type: physicochemical
[2] = biological target: Glutamate receptor ionotropic, NMDA 2B (Rattus norvegicus, UniProt Q00960); assay: Displacement of [3H]ifenprodil from NR2B receptor in rat cortical synaptic membranes; assay type: cell membranes, Membrane
Chain of Glutamate receptor ionotropic, NMDA 2B (Q00960 whole entry): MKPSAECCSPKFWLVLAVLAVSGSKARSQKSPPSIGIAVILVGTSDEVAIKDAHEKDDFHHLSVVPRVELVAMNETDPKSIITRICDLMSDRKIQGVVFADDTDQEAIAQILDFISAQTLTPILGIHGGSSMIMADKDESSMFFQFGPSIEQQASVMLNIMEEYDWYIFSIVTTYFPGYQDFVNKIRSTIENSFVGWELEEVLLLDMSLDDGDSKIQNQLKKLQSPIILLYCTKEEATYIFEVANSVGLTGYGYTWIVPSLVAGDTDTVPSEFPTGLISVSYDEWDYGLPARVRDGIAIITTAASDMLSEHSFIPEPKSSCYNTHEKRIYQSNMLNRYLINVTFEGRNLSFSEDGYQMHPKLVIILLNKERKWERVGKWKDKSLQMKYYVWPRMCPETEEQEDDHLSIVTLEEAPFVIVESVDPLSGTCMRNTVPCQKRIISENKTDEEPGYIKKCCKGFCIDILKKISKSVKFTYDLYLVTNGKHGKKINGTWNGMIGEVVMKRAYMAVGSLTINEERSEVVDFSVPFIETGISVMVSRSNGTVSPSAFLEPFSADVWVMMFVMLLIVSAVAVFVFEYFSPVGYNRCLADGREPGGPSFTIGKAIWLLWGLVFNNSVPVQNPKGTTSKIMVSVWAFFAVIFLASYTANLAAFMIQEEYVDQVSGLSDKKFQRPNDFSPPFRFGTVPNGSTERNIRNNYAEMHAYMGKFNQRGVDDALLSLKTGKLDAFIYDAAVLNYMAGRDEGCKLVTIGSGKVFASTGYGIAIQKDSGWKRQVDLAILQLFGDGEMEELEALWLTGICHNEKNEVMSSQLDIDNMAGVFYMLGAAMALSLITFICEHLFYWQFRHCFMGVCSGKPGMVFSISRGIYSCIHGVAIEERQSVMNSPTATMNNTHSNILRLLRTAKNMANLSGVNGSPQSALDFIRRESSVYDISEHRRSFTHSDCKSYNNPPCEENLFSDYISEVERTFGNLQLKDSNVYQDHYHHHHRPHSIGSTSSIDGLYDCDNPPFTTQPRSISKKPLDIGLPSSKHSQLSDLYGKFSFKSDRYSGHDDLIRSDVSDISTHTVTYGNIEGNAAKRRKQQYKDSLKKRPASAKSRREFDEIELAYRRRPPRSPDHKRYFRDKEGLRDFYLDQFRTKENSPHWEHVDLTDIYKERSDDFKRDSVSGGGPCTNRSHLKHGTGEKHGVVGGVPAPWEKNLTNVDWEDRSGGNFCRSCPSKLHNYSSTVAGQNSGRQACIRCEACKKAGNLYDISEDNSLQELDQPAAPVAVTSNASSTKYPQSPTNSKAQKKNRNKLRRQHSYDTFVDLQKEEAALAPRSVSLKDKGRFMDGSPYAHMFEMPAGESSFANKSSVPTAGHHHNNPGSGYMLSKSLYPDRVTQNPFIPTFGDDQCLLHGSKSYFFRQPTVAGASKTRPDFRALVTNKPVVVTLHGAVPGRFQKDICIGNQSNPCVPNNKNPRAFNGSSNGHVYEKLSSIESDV

logD [1]: 3.74 | Ki [2]: 32.5 nM
SMILES: Oc1ccc2nc(CN3CCC(Oc4ccc(I)cc4)CC3)[nH]c2c1

— ChEMBL document CHEMBL1268917, “Synthesis and biological evaluation of radio-iodinated benzimidazoles as SPECT imaging agents for NR2B subtype of NMDA receptor” (Bioorg Med Chem, 2010)
